Consider 18 compounds from US4537729A, “Dimethylphosphoramidates” (Development of Finance Corporation of New Zealand, priority 1981, dated 1985).

pIC50: −log10 of the molar value. Like-named read-outs stand apart in the source and are kept apart here.

The subject of one data set is L1210 tumour cells. The data set can be described thus: L1210 murine leukaemia cell culture, growth inhibition over 70 hours. It counts as cell-based. Particulars: Mus musculus.
Data set [1] in a line: Reversed-phase partition chromatography (Rm). It counts as physicochemical. As to conditions: lipophilic-hydrophilic balance, linearly related to 1-octanol/water partition coefficients. From the text:
Rm=a measure of the compound's lipophilic-hydrophilic balance from reversed-phase partition chromatography. Rm is linearly related to partition coefficients obtained in the 1-octanol/water system.

A further data set has as its system P388 leukaemia. The data set can be described thus: P388 leukaemia in vivo test in mice (i.p.). More on the design: species or system mouse. Particulars: for ILS (percentage increase in life span): at optimal dose (OD), days 1, 5 and 9, P388 i.p., controls survive 11 days, >20% significant; for Active: at the stated dose, P388 in vivo. From the text: The P388 mouse leukaemia system has been shown by studies at the National Cancer Institute, U.S.A., to be a useful system for detecting agents with antitumour activity against clinical cancer (A. Goldin, J. M. Venditti, J. S. MacDonald, F. M. Muggia, J. E. Henney and V. T. De Vita, Europ.J.Cancer 17, 129-142 (1981).
Tumour P388 i.p.--P388 cells were obtained as frozen stocks from Mason Research Inc., U.S.A., and passaged introperitoneally according to standard methods (Cancer Chemother.Rep. 3, Part 3, page 9 (1972) in DBA-2 mice of either sex. Groups of six Fl hybrid mice (DBA-2 male x C57 Bl female, g weight 20±1 g) were injected intraperitoneally with 10^6 cells on day 0.
O.D.=optimal drug dose (in milligrams per kilogram), administered as a solution in 0.1 ml of 30% v/v ethyl alcohol in water on days 1, 5 and 9 after tumour inoculation. The drug is administered as a soluble acid addition salt.
ILS=percentage increase in life span of treated animals over that of groups of control animals injected with tumour alone. The average survival of control mice was 11 days. Values of ILS greater than 20% are considered statistically significant.
"Y. implies a significant value of drug activity at the stated dose.".

In the next data set the test system is streptococcus faecalis. The data set can be described thus: Antibacterial activity. It counts as cell-based.
A further data set deals with sarcina lutea. As to the kind of experiment: Antibacterial activity. The format is cell-based.
In another data set the test system is eschereichia coli. As to the kind of experiment: Antibacterial activity. It counts as cell-based.
The next data set concerns xanthomonas phaseoli. The data set can be described thus: Antibacterial activity. The format is cell-based.
Data set [2] concerns micrococcus lysodeikticus. As to the kind of experiment: Antibacterial activity. It counts as cell-based.
The next data set has as its system aerobacter aerogenes. As to the kind of experiment: Antibacterial activity. It counts as cell-based.
A further data set concerns neisseria catarrhalis. The data set can be described thus: Antibacterial activity. The format is cell-based.
The next data set has as its system bacillus subtilis. The data set can be described thus: Antibacterial activity. It counts as cell-based.
A further data set relates to staphylococcus aureus. The data set can be described thus: Antibacterial activity. It counts as cell-based.
For a further data set, the system named is alcaligenes viscolactis. The data set can be described thus: Antibacterial activity. The format is cell-based.
In another data set the test system is tumour. Particulars: literature; cited from earlier work.

What is called chromatographic logP is lipophilicity estimated from chromatographic retention.

As for `COc1cc(NP(=O)(OC)OC)ccc1Nc1c2ccccc2nc2cc(Br)ccc12` [Compound 7], the pIC50 in the data set with L1210 tumour cells (L1210, 70 h, read-out: ID50) was 8.31. Also, the chromatographic logP in data set [1] turned out to be 0.57. In the data set with P388 leukaemia, the “ILS (percentage increase in life span)” value is listed as 83% and the Active result was “Y”.

Consider `COP(=O)(Nc1ccc(Nc2c3ccccc3nc3cc([N+](=O)[O-])ccc23)cc1)OC` [Compound 8], for which the pIC50 in the data set on L1210 tumour cells (L1210, 70 h, read-out: ID50) is 7.13. The compound further returned a chromatographic logP in [1] of 0.14. For the same compound, in the data set on P388 leukaemia, the “ILS (percentage increase in life span)” value is 22% and the Active result is “Y”.

Consider `COP(=O)(Nc1ccc(Nc2c3ccccc3nc3ccccc23)cc1)OC` [Compound 1], for which the antibacterial activity entry (in the data set with streptococcus faecalis; in the data set on sarcina lutea; with eschereichia coli; in the data set with xanthomonas phaseoli; in data set [2]; with aerobacter aerogenes) was “active” in each case. In addition, the antibacterial activity entry in the data set with neisseria catarrhalis, in the data set with bacillus subtilis, in the data set with staphylococcus aureus and in the data set with alcaligenes viscolactis was “active” in each case. Also, the pIC50 with L1210 tumour cells (L1210, 70 h, read-out: ID50) was 7.82. The compound further returned a chromatographic logP in data set [1] of 0.31. For the same compound, in the data set on P388 leukaemia, the “ILS (percentage increase in life span)” value turned out to be 74%. Besides, in the data set with P388 leukaemia, the Active result is on record as “Y”.

Turning to `COc1cc(NP(=O)(OC)OC)ccc1Nc1c2ccccc2nc2ccccc12` [Compound 2], in the data set on L1210 tumour cells (L1210, 70 h, read-out: ID50), the pIC50 was 7.15. Also, the chromatographic logP in [1] was determined as 0.47. In the data set with P388 leukaemia, the “ILS (percentage increase in life span)” value turned out to be 67% and the Active result is recorded as “Y”.

As to `CNC(=O)c1cccc2c(Nc3ccc(NP(=O)(OC)OC)cc3OC)c3ccc(Cl)cc3nc12` [Compound 15], in the data set with L1210 tumour cells (L1210, 70 h, read-out: ID50), the pIC50 was 7.30. The compound further had a chromatographic logP in [1] of 0.54. Further, in the data set with P388 leukaemia, the “ILS (percentage increase in life span)” value came out at 79% and the Active result is “Y”.

For `COc1cc(NP(=O)(OC)OC)ccc1Nc1c2ccccc2nc2cc(Cl)ccc12` [Compound 5], in the data set on L1210 tumour cells (L1210, 70 h, read-out: ID50), the pIC50 is 7.92. Besides, in data set [1], the chromatographic logP amounted to 0.61. Further, in the data set on P388 leukaemia, the “ILS (percentage increase in life span)” value is reported as 78% and the Active result was “Y”.

Turning to `COP(=O)(Nc1ccc(Nc2c3ccccc3nc3cc(Cl)ccc23)cc1)OC` [Compound 4], the pIC50 in the data set on L1210 tumour cells (L1210, 70 h, read-out: ID50) is 7.80. For the same compound, the chromatographic logP in data set [1] was determined as 0.46. In the data set with P388 leukaemia, the “ILS (percentage increase in life span)” value was determined as 54% and the Active entry is given as “Y”.

For `COP(=O)(Nc1ccc(Nc2c3cccc(C)c3nc3c(C)cccc23)cc1)OC` [Compound 16], the pIC50 with L1210 tumour cells (L1210, 70 h, read-out: ID50) is 7.77. Besides, the chromatographic logP in data set [1] was 0.37. In addition, in the data set on P388 leukaemia, the “ILS (percentage increase in life span)” value was 109% and the Active entry is reported as “Y”.

Take `COc1cccc2c(Nc3ccc(NP(=O)(OC)OC)cc3)c3ccccc3nc12` [Compound 9]: the pIC50 in the data set on L1210 tumour cells (L1210, 70 h, read-out: ID50) was 7.70. This compound gave a chromatographic logP in data set [1] of 0.33. Further, in the data set on P388 leukaemia, the “ILS (percentage increase in life span)” value was 44% and the Active entry is “Y”.

With `COP(=O)(Nc1ccc(Nc2c3ccccc3nc3cc(C)ccc23)cc1)OC` [Compound 3], the pIC50 in the data set on L1210 tumour cells (L1210, 70 h, read-out: ID50) is 8.17. Besides, the chromatographic logP in data set [1] is 0.49. Moreover, in the data set with P388 leukaemia, the “ILS (percentage increase in life span)” value is on record as 80% and the Active entry was “Y”.

Consider `CNC(=O)c1cccc2c(Nc3ccc(NP(=O)(OC)OC)cc3OC)c3ccccc3nc12` [Compound 12], for which the pIC50 in the data set with L1210 tumour cells (L1210, 70 h, read-out: ID50) was 7.74. Also, the chromatographic logP in data set [1] turned out to be 0.28. Besides, in the data set on P388 leukaemia, the “ILS (percentage increase in life span)” value is 118% and the Active entry was “Y”.

Turning to `COc1cc(NP(=O)(OC)OC)ccc1Nc1c2ccccc2nc2c(C)cccc12` [Compound 14], the pIC50 with L1210 tumour cells (L1210, 70 h, read-out: ID50) is 7.74. This compound yielded a chromatographic logP in data set [1] of 0.44. In addition, in the data set with P388 leukaemia, the “ILS (percentage increase in life span)” value came to 106% and the Active entry is “Y”.

Turning to `CNC(=O)c1cccc2c(Nc3ccc(NP(=O)(OC)OC)cc3)c3ccccc3nc12` [Compound 11], the pIC50 in the data set with L1210 tumour cells (L1210, 70 h, read-out: ID50) was 7.01. Moreover, in data set [1], the chromatographic logP stood at 0.18. Further, in the data set on P388 leukaemia, the “ILS (percentage increase in life span)” value was 38% and the Active result was “Y”.

Take `COP(=O)(Nc1ccc(Nc2c3ccccc3nc3cc(Br)ccc23)cc1)OC` [Compound 6]: the pIC50 with L1210 tumour cells (L1210, 70 h, read-out: ID50) is 7.82. Besides, the chromatographic logP in data set [1] was determined as 0.47. For the same compound, in the data set on P388 leukaemia, the “ILS (percentage increase in life span)” value was found to be 76% and the Active result is recorded as “Y”.

Take `COc1cc(NS(C)(=O)=O)ccc1Nc1c2ccccc2nc2ccccc12` [Compound 18, 4'-(9-acridinylamino)methanesulphon-m-anisidide, reference compound]: in the data set on P388 leukaemia, the “ILS (percentage increase in life span)” value was determined as 78% and the Active entry is recorded as “Y”.

Consider `COP(=O)(Nc1ccc(Nc2c3ccccc3nc3c(C)cccc23)cc1)OC` [Compound 13], for which the pIC50 in the data set on L1210 tumour cells (L1210, 70 h, read-out: ID50) is 8.05. The chromatographic logP in data set [1] stood at 0.46. Besides, in the data set on P388 leukaemia, the “ILS (percentage increase in life span)” value is on record as 111% and the Active entry is “Y”.

`CS(=O)(=O)Nc1ccc(Nc2c3ccccc3nc3ccccc23)cc1` [Compound 17, 4'-(9-acridinylamino)methanesulphonanilide, reference compound]: the “antitumour effect (earlier work)” value in the data set with tumour was “marked antitumour effect”. The pIC50 in the data set with L1210 tumour cells (murine L1210 leukaemia cells, 70 hours, counted cell number reduced by 50%, read-out: ID50 (the source's name)) is 7.46. In the data set with P388 leukaemia, the “ILS (percentage increase in life span)” value came to 93% and the Active result is reported as “Y”.

Consider `COc1cc(NP(=O)(OC)OC)ccc1Nc1c2ccccc2nc2c(OC)cccc12` [Compound 10], for which the pIC50 with L1210 tumour cells (L1210, 70 h, read-out: ID50) was 7.92. In data set [1], the chromatographic logP was 0.47. Further, in the data set with P388 leukaemia, the “ILS (percentage increase in life span)” value came out at 76% and the Active entry is reported as “Y”.
